Laboratory results published in ChEMBL document CHEMBL1153321, “Approaches to the simultaneous inactivation of metallo- and serine-beta-lactamases” (Bioorg Med Chem Lett, 2009).

Key:
[1] = Inhibition of recombinant VIM-2
[2] = Inhibition of recombinant GIM-1

`CC(=O)OCC1=C(C(=O)O)N2C(=O)[C@@H](N(O)C=O)[C@H]2SC1` showed an IC50 [1] of 10 µM and an IC50 [2] of 0.3 µM.

For `CC(=O)OCC1=C(C(=O)O)N2C(=O)/C(=N/O)[C@H]2SC1`, the IC50 [1] was 10 µM and the IC50 [2] was 15 µM.

Molecule `CC(=O)OCC1=C(C(=O)O)N2C(=O)/C(=N/O)[C@H]2S(=O)(=O)C1` has an IC50 [1] of 270 µM and an IC50 [2] of 170 µM.

For `CC1=C(C(=O)O)N2C(=O)/C(=N/O)[C@H]2S(=O)(=O)C1`, the IC50 [1] was 25 µM and the IC50 [2] was > 500 µM.

Molecule `CC(=O)OCC1=C(C(=O)O)N2C(=O)[C@@H](NO)[C@H]2SC1` has an IC50 [1] of 9 µM and an IC50 [2] of 2 µM.

In the case of `CC(=O)OCC1=C(C(=O)O)N2C(=O)[C@@H](N(O)C(=O)Cc3ccccc3)[C@H]2SC1`, the IC50 [1] is reported as 2 µM and the IC50 [2] is reported as 0.3 µM.

`CC(=O)OCC1=C(C(=O)O)N2C(=O)[C@@H](NC=O)[C@H]2SC1` showed an IC50 [1] of 35 µM and an IC50 [2] of 47 µM.
